The values below are quoted from earlier work in patent US20210154335A1, “DYE AGGREGATES-CONTAINING NANOPARTICLES AND USES THEREOF” (BOARD OF REGENTS, THE UNIVERSITY OF TEXAS SYSTEM, priority 2019, published 2021).

The conditions of this data set: in vivo.

Each structure is given as a SMILES string.

With `CC1(C)C(/C=C/C=C/C=C/C=C2\N(CCCCS(=O)(=O)O)c3ccc4ccccc4c3C2(C)C)=[N+](CCCCS(=O)(=O)[O-])c2ccc3ccccc3c21` [ICG, indocyanine green], the blood circulation half-life was 2 to 4 min.
